In ChEMBL document CHEMBL1157405, “ent-Kaurane diterpenoids from Isodon japonicus” (J Nat Prod, 2008):

Each compound was assayed on RAW264.7 (assay: Inhibition of LPS-induced nitric oxide production in mouse RAW264.7 cells assessed as nitrite formation).
Assay type: functional, cell-based

IC50 [µM]	Compound
5.9	C=C1C(=O)[C@]23C[C@H]1CC[C@H]2[C@@]12CO[C@@]3(O)[C@@H](O)[C@@H]1[C@](C)(COC(C)=O)CC[C@@H]2O
3.3	C=C1C(=O)[C@]23C[C@H]1CC[C@H]2[C@@]12CO[C@]3(O)[C@@H](O)[C@@H]1[C@](C)(COC(C)=O)CC[C@@H]2OC(C)=O [EFFUSANIN D]
24.2	C=C1C(=O)[C@]23C[C@H]1C[C@@H](O)[C@H]2[C@]1(COC3=O)[C@@H](OC(C)=O)CC[C@@](C)(COC(C)=O)[C@H]1C=O [LOXOTHYRIN A]
20.3	C=C1C(=O)[C@]23C[C@H]1CC[C@H]2[C@]1(COC3=O)[C@@H](OC(C)=O)CC[C@@](C)(COC(C)=O)[C@H]1C=O
6.3	C=C1C(=O)[C@]23[C@H](O)[C@H]1CC[C@H]2[C@@]12CO[C@@]3(O)[C@@H](O)[C@@H]1[C@](C)(COC(C)=O)CC[C@@H]2OC(C)=O [ISODOJAPONIN A]
8.2	C=C1C(=O)[C@]23C[C@H]1CC[C@H]2[C@]1(COC3=O)[C@@H](OC(C)=O)CC[C@@](C)(COC(C)=O)[C@H]1CO
10.2	C=C1C(=O)[C@]23C[C@H]1C[C@@H](OC(C)=O)[C@H]2[C@@]12CO[C@@]3(O)[C@@H](O)[C@@H]1[C@](C)(COC(C)=O)CC[C@@H]2O
8.7	C=C1C(=O)[C@]23C[C@H]1CC[C@H]2[C@]1(COC3=O)[C@@H](OC(C)=O)CC[C@@](C)(CO)[C@H]1COC(C)=O

Continued, compound first:

Compound	IC50 [µM]
C=C1C(=O)[C@@]23[C@H](O)C[C@@H]4C(C)(C)CC[C@H](O)[C@@]4(C)[C@@H]2C[C@H](OC(C)=O)[C@@H]1[C@H]3O [EXCISANIN B]	3.3
C=C1C(=O)[C@]23[C@H](O)[C@H]1CC[C@H]2[C@@]12CO[C@@]3(O)[C@@H](O)[C@@H]1C(C)(C)CC[C@@H]2OC(C)=O [LASIOKAURIN]	1.6
C=C1C(=O)[C@]23[C@@H](O)[C@H]1CC[C@H]2[C@@]12COC3(O)C[C@@H]1C(C)(C)CC[C@@H]2O	8.5
C=C1C(=O)[C@]23[C@H](O)[C@H]1CC[C@H]2[C@]12CCC[C@@](C)(COC(C)=O)[C@H]1[C@H](O)[C@]3(O)OC2 [LONGIKAURIN B]	0.9
C=C1C(=O)[C@]23C[C@H]1CC[C@H]2[C@]12CCC[C@@](C)(COC(C)=O)[C@H]1[C@H](O)[C@]3(O)OC2 [LONGIKAURIN C]	1
C=C1C(=O)[C@@]23[C@H](O)C[C@@H]4C(C)(C)[C@@H](OC(C)=O)CC[C@@]4(C)[C@@H]2CC(=O)[C@@H]1[C@H]3O [PSEURATA C]	5.4
C=C1C(=O)[C@]23C[C@H]1C[C@@H](O)[C@H]2[C@]12CCC[C@@](C)(COC(C)=O)[C@H]1[C@H](O)[C@]3(O)OC2 [LONGIKAURIN D]	2
